Target: BRAF^V600E protein (Homo sapiens, UniProt P15056, V600E)
Experiment: HiBiT cellular BRAF V600E degradation assay
Format: cell-based
Conditions: 24 h incubation; for DC50: A375.10 cells (HiBiT tag knocked in at N-terminal of BRAF V600E), concentration at which 50% of total cellular BRAF V600E is degraded; for Emax: read-out: HiBit 24 h Emax
Source text: DMEM no-phenol red medium supplemented with L-glutamine was purchased from (Corning). Fetal bovine serum (FBS) was purchased from Gibco (Grand Island, NY, USA). Nano-Glo® HiBiT Lytic Assay Buffer & Reagents were purchased from Promega (Madison, WI, USA). […] Cell culture flasks and 384-well black flat-bottom polystyrene TC-treated microplates were acquired from Corning (Corning, NY, USA).
HiBiT Cellular BRAFv^600E Degradation Assay
Prior to the assay, the A375.10 cell line is maintained in DMEM no-phenol red medium supplemented with 10% fetal bovine serum (FBS). […] Briefly, test compounds were added to the 384-well plate from a top concentration of 10 μM with 11 half log dilutions of compound, plated in duplicate. Then, 30 uL of a suspension of A375.10 cell lines was dispensed into columns 1-24 of the 384-well plates at a cell density of 7500 cells per well. The plates were kept at 37° C. with 5% CO2 for the duration of the assay (6 or 24 hr). After the desired incubation time with compound, 30 uL of Nano-Glo® HiBiT Lytic Buffer containing LgBiT protein (diluted 1:100) and luminescence substrate (diluted 1:50) were added to the cells in columns 1-23 of the assay plate. The plate was the incubated for 30 min on the bench at room temperature. Finally, HiBiT luminescence signal was acquired on EnVision™ Multilabel Reader (PerkinElmer, Santa Clara, CA, USA).
Quantification of luminescence responses measured in the presence of compound were normalized to a high signal/no degradation control (untreated cells+lytic detection reagent) and a low signal/full degradation control (untreated cells, no lytic detection reagent). Data were analyzed with a 4-parameter logistic fit to generate sigmoidal dose-response curves. […] The Emax, or maximum effect of each compound, represents the amount of residual protein remaining in the cell following compound treatment.

[1] = A375.10 cells, Emax = amount of residual protein remaining in the cell after compound treatment

Sequence of BRAF^V600E protein (P15056 whole entry V600E): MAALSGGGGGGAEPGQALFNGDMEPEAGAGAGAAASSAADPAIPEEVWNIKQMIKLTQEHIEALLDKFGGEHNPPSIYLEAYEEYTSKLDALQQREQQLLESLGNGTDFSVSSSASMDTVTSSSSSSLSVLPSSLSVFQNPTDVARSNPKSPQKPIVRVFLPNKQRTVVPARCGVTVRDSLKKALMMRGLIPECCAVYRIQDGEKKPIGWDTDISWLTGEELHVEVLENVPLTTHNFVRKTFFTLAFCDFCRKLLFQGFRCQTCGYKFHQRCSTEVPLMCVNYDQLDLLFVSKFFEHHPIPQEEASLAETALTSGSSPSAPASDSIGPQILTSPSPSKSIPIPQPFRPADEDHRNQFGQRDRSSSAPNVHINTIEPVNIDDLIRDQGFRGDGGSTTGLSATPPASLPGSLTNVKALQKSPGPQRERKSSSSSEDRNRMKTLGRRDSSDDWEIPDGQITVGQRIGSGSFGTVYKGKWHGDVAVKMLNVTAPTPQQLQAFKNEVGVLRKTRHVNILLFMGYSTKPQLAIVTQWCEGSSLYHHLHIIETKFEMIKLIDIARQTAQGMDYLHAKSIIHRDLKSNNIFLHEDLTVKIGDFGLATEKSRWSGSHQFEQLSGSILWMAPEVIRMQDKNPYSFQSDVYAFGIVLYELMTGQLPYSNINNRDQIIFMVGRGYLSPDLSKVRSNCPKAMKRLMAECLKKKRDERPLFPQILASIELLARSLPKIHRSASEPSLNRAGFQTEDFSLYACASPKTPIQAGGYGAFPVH

| Structure (SMILES) | DC50 [nM] | Emax [1] [%] | HiBit 24 h Emax [1] [%] |
| --- | --- | --- | --- |
| CCN(C)S(=O)(=O)Nc1ccc(F)c(C(=O)c2c[nH]c3ncc(-c4ccc(N5C[C@H]6CC[C@@H](C5)N6C(=O)CN5CCC(c6ccc(NC7CCC(=O)NC7=O)cc6)CC5)nc4)cc23)c1F (mixture of isomers) [Example A71, 3-[3-[[Ethyl(methyl)sulfamoyl]amino]-2,6-difluorobenzoyl]-5-[6-[rac-(1R,5S)-8-[2-[4-[4-[(2,6-dioxopiperidin-3-yl)amino]phenyl]piperidin-1-yl]acetyl]-3,8-diazabicyclo[3.2.1]octan-3-yl]pyridin-3-yl]-1H-pyrrolo[2,3-b]pyridine] | 28 | 23 | – |
| O=C1CCC(Nc2ccc(C3CCN(CC(=O)N4[C@@H]5CCC[C@H]4CN(c4ccc(-c6cnc7[nH]cc(C(=O)c8c(F)ccc(NS(=O)(=O)N9CCCC9)c8F)c7c6)cn4)C5)CC3)cc2)C(=O)N1 (mixture of isomers) [Example A84, N-[2,4-Difluoro-3-[5-[6-[rac-(1R,5S)-9-[2-[4-[4-[(2,6-dioxopiperidin-3-yl)amino]phenyl]piperidin-1-yl]acetyl]-3,9-diazabicyclo[3.3.1]nonan-3-yl]pyridin-3-yl]-1H-pyrrolo[2,3-b]pyridine-3-carbonyl]phenyl]pyrrolidine-1-sulfonamide] | 11 | 11 | – |
| CCN(C)S(=O)(=O)Nc1ccc(F)c(C(=O)c2c[nH]c3ncc(-c4cnc(N5CCN(C(=O)CC6CCC(c7ccc(NC8CCC(=O)NC8=O)cc7)CC6)CC5)nc4)cc23)c1F (single isomer, unassigned) [Example 35, 5-[2-[4-[2-[4-[4-[(2,6-dioxo-3-piperidyl)amino]phenyl]cyclohexyl]acetyl]piperazin-1-yl]pyrimidin-5-yl]-3-[3-[[ethyl(methyl)sulfamoyl]amino]-2,6-difluoro-benzoyl]-1H-pyrrolo[2,3-b]pyridine] | 25 | 23.1 | – |
| CCN(C)S(=O)(=O)Nc1ccc(F)c(C(=O)c2c[nH]c3ncc(-c4cnc(N5CCN(C(=O)CC6CCC(c7ccc(NC8CCC(=O)NC8=O)cc7)CC6)CC5)nc4)cc23)c1F (single isomer, unassigned) [Example 36, 5-[2-[4-[2-[4-[4-[(2,6-dioxo-3-piperidyl)amino]phenyl]cyclohexyl]acetyl]piperazin-1-yl]pyrimidin-5-yl]-3-[3-[[ethyl(methyl)sulfamoyl]amino]-2,6-difluoro-benzoyl]-1H-pyrrolo[2,3-b]pyridine] | 21 | – | 16.12 |
| [2H][C@]1(c2ccc(N3CCC(O)(CC(=O)N4CCN(c5ncc(-c6cnc7[nH]cc(C(=O)c8c(F)ccc(NS(=O)(=O)N(C)CC)c8F)c7c6)cn5)CC4)CC3)c(F)c2)CCC(=O)NC1=O (single isomer, unassigned) [Example 158d] | 205 | 11.6 | – |
| CCN(C)S(=O)(=O)Nc1ccc(F)c(C(=O)c2c[nH]c3ncc(-c4cnc(N5CCN(C(=O)CN6CCC(c7ccc(N[C@@H]8CCC(=O)NC8=O)cc7)CC6)CC5)nc4)cc23)c1F (single isomer, unassigned) [Example A103] | 4 | 6 | – |
| CCN(C)S(=O)(=O)Nc1ccc(F)c(C(=O)c2c[nH]c3ncc(-c4cnc(N5CCN(C(=O)CN6CCC(c7ccc(N[C@H]8CCC(=O)NC8=O)cc7)CC6)CC5)nc4)cc23)c1F (single isomer, unassigned) [Example A111] | 4 | 7 | – |
| CCCS(=O)(=O)Nc1ccc(F)c(C(=O)c2c[nH]c3ncc(-c4cnc(N5CCN(C(=O)CN6CCC(c7ccc(OC8CCC(=O)NC8=O)cc7)CC6)CC5)nc4)cc23)c1F (stereo not drawn) [Example 2, N-[3-[5-[2-[4-[2-[4-[4-[(2,6-dioxo-3-piperidyl)oxy]phenyl]-1-piperidyl]acetyl]piperazin-1-yl]pyrimidin-5-yl]-1H-pyrrolo[2,3-b]pyridine-3-carbonyl]-2,4-difluoro-phenyl]propane-1-sulfonamide] | 12.2 | 7.81 | – |
| CC(C)S(=O)(=O)Nc1ccc(F)c(C(=O)c2c[nH]c3ncc(-c4cnc(N5CCN(C(=O)CN6CCC(c7ccc(NC8CCC(=O)NC8=O)cc7)CC6)CC5)nc4)cc23)c1F (stereo not drawn) [Example 5, N-[3-[5-[2-[4-[2-[4-[4-[(2,6-dioxo-3-piperidyl)amino]phenyl]-1-piperidyl]acetyl]piperazin-1-yl]pyrimidin-5-yl]-1H-pyrrolo[2,3-b]pyridine-3-carbonyl]-2,4-difluoro-phenyl]propane-2-sulfonamide] | 3.94 | 8.8 | – |

Compounds with a lower DC50, results first:

| DC50 [nM] | Emax [1] [%] | HiBit 24 h Emax [1] [%] | Structure (SMILES) |
| --- | --- | --- | --- |
| 2.73 | 9.38 | – | CCN(C)S(=O)(=O)Nc1ccc(F)c(C(=O)c2c[nH]c3ncc(-c4cnc(N5CCN(C(=O)CC6(O)CCN(c7ccc(C8CCC(=O)NC8=O)cc7F)CC6)CC5)nc4)cc23)c1F (racemic) [Example 158, 5-[2-[4-[2-[1-[4-(2,6-dioxo-3-piperidyl)-2-fluoro-phenyl]-4-hydroxy-4-piperidyl]acetyl]piperazin-1-yl]pyrimidin-5-yl]-3-[3-[[ethyl(methyl)sulfamoyl]amino]-2,6-difluoro-benzoyl]-1H-pyrrolo[2,3-b]pyridine] |
| 1.99 | 7.84 | – | [2H][C@@]1(c2ccc(N3CCC(O)(CC(=O)N4CCN(c5ncc(-c6cnc7[nH]cc(C(=O)c8c(F)ccc(NS(=O)(=O)N(C)CC)c8F)c7c6)cn5)CC4)CC3)c(F)c2)CCC(=O)NC1=O (single isomer, unassigned) [Example 158c] |
| 2.82 | 8.9 | – | CCN(C)S(=O)(=O)Nc1ccc(F)c(C(=O)c2c[nH]c3ncc(-c4cnc(N5CCN(C(=O)CC6(O)CCN(c7ccc(N[C@H]8CCC(=O)NC8=O)cc7F)CC6)CC5)nc4)cc23)c1F (single isomer, unassigned) [Example 166] |
| 3.49 | 9.19 | – | CCN(C)S(=O)(=O)Nc1ccc(F)c(C(=O)c2c[nH]c3ncc(-c4ccc(N5CCN(C(=O)CN6CCC(c7ccc(NC8CCC(=O)NC8=O)cc7)C(F)(F)C6)CC5)nc4)cc23)c1F (stereo in doubt) [Example 77, 5-[6-[4-[2-[(4R)-4-[4-[(2,6-dioxo-3-piperidyl)amino]phenyl]-3,3-difluoro-1-piperidyl]acetyl]piperazin-1-yl]-3-pyridyl]-3-[3-[[ethyl(methyl)sulfamoyl]amino]-2,6-difluoro-benzoyl]-1H-pyrrolo[2,3-b]pyridine] |
| 0.79 | 7.81 | – | CCCS(=O)(=O)Nc1ccc(F)c(C(=O)c2c[nH]c3ncc(-c4cnc(N5CCN(C(=O)CN6CCC(c7ccc(NC8CCC(=O)NC8=O)cc7)CC6)CC5)nc4)cc23)c1F (stereo not drawn) [Example 1, N-[3-[5-[2-[4-[2-[4-[4-[(2,6-dioxo-3-piperidyl)amino]phenyl]-1-piperidyl]acetyl]piperazin-1-yl]pyrimidin-5-yl]-1H-pyrrolo[2,3-b]pyridine-3-carbonyl]-2,4-difluoro-phenyl]propane-1-sulfonamide] |
| 3.04 | 9.6 | – | CCCS(=O)(=O)Nc1ccc(F)c(C(=O)c2c[nH]c3ncc(-c4ccc(N5CCN(C(=O)CN6CCC(c7ccc(NC8CCC(=O)NC8=O)cc7)CC6)CC5)nc4)cc23)c1F (stereo not drawn) [Example 3, N-[3-[5-[6-[4-[2-[4-[4-[(2,6-dioxo-3-piperidyl)amino]phenyl]-1-piperidyl]acetyl]piperazin-1-yl]-3-pyridyl]-1H-pyrrolo[2,3-b]pyridine-3-carbonyl]-2,4-difluoro-phenyl]propane-1-sulfonamide] |

From patent publication US12559492B2, “BRAF degraders” (C4 Therapeutics, Inc., priority 2020, dated 2026)
